Source: ChEMBL document CHEMBL1201862, “PubChem BioAssay data set” (2004)
Active and inactive are the calls of the source.

Assays:
[1] = target: Photoreceptor-specific nuclear receptor (Homo sapiens, UniProt Q9Y5X4); assay type: functional, cell-based;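 also: CHO-S cells with Gal4-NCOR and VP16-NR2E3 two-hybrid luciferase reporter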
[2] = target: T1, Probable nicotinate-nucleotide adenylyltransferase (Staphylococcus aureus (strain N315), UniProt P65502); assay type: functional, Staphylococcus aureus subsp. aureus N315;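 as to IC50 Mean: confirmatory dose-response retesting of NadD inhibitor hits first found in an ultra-high-throughput screen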
T1 sequence (P65502 whole entry): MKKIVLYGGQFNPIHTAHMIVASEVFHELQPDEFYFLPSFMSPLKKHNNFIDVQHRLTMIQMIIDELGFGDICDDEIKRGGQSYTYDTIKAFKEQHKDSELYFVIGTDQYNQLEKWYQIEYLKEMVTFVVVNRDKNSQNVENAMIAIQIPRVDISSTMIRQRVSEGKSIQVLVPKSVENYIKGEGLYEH

[3] = target: T1, Probable nicotinate-nucleotide adenylyltransferase; assay type: functional, Staphylococcus aureus subsp. aureus N315; conditions: read-out: IC50_Mean
BJ [4] = assay: cytotoxicity toward BJ-TERT fibroblasts, dose response, cell-based, RAS-independent, luminescence (AID 1933); assay type: functional; conditions: Homo sapiens
BJ [5] = assay: cells; assay type: functional, cell-based; conditions: Homo sapiens
BJ [6] = assay: cytotoxicity toward BJ-TERT-LT-ST fibroblasts, dose response, cell-based, RAS-independent, luminescence (AID 1935); assay type: functional; conditions: Homo sapiens;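 also: BJ fibroblasts immortalized with TERT plus LT and ST oncogenes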
[7] = cytotoxicity toward DRD oncogenic fibroblasts, dose response, cell-based, non-viral oncogenic, luminescence (AID 1934); assay type: functional; conditions: Homo sapiens
[8] = target: T2, Replicative DNA helicase DnaB (Mycobacterium tuberculosis, UniProt P9WMR3); assay: DnaB intein splicing inhibitors, dose response, biochemical, cell-free fluorescence (AID 449749); assay type: functional
T2 sequence (P9WMR3 whole entry): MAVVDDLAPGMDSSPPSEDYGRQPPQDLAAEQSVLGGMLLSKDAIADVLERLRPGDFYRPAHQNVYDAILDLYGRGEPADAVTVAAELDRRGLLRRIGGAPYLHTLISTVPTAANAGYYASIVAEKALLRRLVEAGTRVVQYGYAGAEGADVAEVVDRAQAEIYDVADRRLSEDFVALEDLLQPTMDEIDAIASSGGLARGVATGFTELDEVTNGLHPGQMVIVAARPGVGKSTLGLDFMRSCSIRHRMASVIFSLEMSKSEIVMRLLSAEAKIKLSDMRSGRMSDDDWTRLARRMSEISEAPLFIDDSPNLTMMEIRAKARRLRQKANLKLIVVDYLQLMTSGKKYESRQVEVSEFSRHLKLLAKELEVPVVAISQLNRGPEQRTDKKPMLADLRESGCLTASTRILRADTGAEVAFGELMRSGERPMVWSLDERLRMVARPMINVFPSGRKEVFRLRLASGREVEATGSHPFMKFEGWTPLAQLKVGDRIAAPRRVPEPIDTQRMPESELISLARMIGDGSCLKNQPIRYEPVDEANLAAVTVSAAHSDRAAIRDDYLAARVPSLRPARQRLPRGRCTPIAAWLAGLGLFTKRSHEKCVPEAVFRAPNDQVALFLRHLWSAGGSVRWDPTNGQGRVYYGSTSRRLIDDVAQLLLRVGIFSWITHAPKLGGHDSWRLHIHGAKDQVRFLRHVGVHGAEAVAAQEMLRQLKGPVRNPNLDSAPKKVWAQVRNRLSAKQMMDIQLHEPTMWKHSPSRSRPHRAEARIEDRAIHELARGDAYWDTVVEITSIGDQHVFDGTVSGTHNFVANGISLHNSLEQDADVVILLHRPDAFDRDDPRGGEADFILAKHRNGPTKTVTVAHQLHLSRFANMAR

BJ [9] = assay: cytotoxicity toward Ras-transformed BJeLR fibroblasts, dose response, cell-based, alamar blue fluorescence, cherrypicked samples (AID 2631); assay type: functional; conditions: Homo sapiens;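 also: confirmatory dose-response assay in RAS-dependent BJ fibroblasts engineered with TERT, LT and ST, with cytotoxicity read by fluorescence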
Protein RecA = target: T3, Protein RecA (Mycobacterium tuberculosis, UniProt P9WHJ3); assay: Fluorescence Cell-Free Homogeneous Dose Retest to Identify Inhibitors of RecA-Intein Splicing Activity. [Related pubchem assays (depositor defined):AID2097, AID2223, AID489010, AID492950]; assay type: functional
T3 sequence (P9WHJ3 whole entry): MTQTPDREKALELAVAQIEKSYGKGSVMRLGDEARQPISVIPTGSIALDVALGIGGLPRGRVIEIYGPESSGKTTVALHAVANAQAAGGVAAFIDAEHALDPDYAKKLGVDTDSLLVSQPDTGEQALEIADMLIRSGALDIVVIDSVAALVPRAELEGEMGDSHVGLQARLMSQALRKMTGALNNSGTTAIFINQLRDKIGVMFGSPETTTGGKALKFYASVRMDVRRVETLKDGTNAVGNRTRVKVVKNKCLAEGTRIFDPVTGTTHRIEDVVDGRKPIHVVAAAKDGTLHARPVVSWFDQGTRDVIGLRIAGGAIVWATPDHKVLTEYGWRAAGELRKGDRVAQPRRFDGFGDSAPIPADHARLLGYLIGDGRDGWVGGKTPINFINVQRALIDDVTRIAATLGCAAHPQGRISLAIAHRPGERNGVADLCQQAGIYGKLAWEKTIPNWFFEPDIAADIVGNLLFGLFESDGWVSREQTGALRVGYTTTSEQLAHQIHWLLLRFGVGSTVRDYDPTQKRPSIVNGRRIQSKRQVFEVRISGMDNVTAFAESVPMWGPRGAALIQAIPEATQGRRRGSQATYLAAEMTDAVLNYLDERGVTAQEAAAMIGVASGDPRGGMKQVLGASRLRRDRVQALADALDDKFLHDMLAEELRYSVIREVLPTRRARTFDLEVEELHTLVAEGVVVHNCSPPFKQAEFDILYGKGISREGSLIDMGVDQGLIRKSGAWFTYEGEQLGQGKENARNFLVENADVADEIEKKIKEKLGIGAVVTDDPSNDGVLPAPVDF

[10] = target: Protein disulfide-isomerase (Homo sapiens, UniProt P07237); assay: PDI inhibitors, insulin aggregation turbidity, dose response, biochemical, absorbance, cherry-picked samples (AID 602350); assay type: functional
Sequence of Protein disulfide-isomerase (P07237 whole entry): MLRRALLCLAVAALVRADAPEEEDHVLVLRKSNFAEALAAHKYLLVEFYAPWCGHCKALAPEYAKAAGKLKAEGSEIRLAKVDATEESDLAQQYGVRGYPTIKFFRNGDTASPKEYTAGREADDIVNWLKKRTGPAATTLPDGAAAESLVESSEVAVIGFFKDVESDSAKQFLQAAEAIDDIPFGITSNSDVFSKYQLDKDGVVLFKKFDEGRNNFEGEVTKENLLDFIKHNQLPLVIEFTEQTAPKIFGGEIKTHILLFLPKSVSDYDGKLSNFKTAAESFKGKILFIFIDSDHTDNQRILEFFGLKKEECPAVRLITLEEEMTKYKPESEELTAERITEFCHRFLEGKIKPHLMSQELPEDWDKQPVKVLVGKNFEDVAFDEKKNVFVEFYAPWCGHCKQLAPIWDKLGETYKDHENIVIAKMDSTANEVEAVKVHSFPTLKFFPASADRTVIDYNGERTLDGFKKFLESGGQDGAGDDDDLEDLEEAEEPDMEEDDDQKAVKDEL

Exodeoxyribonuclease V = target: T4, Exodeoxyribonuclease V (Escherichia coli (strain K12), UniProt P04993+P07648+P08394); assay: E. coli RecBCD inhibitors, dose response, counter-screen for AddAB inhibitor project, absorbance, V66 E. coli, mutant T4 phage (AID 492957); assay type: functional, cell-based, Escherichia coli str. K-12 substr. MG1655
T4 sequence (P04993 whole entry): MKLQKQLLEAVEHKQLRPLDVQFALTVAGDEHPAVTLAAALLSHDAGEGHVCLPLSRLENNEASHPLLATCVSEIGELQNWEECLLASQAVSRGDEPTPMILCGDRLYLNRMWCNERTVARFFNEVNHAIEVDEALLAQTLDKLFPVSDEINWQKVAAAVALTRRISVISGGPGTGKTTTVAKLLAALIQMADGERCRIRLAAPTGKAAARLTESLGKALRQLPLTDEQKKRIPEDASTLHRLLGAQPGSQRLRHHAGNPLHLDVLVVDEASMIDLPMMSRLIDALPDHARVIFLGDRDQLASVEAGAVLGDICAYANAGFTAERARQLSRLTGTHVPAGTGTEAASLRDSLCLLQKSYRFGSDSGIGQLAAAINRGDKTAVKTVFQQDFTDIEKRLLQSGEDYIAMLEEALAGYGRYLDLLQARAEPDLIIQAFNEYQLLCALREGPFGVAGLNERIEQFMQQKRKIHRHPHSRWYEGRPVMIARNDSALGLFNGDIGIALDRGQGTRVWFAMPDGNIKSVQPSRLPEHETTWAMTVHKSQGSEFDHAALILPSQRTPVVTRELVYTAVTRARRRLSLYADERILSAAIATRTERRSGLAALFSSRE
T4 sequence (P07648 whole entry): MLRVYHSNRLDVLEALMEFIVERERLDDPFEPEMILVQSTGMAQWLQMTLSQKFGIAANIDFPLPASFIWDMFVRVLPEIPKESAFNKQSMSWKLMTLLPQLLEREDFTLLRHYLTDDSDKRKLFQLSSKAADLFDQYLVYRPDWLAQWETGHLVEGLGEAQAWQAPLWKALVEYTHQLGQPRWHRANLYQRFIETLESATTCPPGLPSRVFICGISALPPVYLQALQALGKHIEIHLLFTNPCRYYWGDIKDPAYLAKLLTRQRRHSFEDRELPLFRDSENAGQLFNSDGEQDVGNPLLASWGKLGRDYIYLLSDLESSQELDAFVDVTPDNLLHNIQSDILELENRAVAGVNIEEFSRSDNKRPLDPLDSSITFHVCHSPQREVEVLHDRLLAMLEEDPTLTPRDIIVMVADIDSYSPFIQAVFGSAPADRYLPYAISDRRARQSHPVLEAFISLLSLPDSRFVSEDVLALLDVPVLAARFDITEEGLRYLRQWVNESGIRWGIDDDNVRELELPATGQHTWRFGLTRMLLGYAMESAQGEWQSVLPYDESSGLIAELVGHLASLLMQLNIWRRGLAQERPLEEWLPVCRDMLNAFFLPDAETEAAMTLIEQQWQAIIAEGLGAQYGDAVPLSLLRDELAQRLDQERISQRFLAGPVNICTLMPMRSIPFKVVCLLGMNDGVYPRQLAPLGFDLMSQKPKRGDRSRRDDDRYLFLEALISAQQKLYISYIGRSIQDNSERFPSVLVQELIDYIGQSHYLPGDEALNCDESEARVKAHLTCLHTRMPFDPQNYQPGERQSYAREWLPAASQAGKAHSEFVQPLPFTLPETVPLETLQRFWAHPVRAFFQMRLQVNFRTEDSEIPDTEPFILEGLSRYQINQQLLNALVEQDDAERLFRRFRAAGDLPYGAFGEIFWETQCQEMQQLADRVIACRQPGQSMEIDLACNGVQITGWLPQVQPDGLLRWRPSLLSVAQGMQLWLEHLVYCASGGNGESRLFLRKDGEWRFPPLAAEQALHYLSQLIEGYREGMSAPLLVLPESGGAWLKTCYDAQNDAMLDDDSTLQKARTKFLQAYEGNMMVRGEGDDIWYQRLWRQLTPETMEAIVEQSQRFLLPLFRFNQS
T4 sequence (P08394 whole entry): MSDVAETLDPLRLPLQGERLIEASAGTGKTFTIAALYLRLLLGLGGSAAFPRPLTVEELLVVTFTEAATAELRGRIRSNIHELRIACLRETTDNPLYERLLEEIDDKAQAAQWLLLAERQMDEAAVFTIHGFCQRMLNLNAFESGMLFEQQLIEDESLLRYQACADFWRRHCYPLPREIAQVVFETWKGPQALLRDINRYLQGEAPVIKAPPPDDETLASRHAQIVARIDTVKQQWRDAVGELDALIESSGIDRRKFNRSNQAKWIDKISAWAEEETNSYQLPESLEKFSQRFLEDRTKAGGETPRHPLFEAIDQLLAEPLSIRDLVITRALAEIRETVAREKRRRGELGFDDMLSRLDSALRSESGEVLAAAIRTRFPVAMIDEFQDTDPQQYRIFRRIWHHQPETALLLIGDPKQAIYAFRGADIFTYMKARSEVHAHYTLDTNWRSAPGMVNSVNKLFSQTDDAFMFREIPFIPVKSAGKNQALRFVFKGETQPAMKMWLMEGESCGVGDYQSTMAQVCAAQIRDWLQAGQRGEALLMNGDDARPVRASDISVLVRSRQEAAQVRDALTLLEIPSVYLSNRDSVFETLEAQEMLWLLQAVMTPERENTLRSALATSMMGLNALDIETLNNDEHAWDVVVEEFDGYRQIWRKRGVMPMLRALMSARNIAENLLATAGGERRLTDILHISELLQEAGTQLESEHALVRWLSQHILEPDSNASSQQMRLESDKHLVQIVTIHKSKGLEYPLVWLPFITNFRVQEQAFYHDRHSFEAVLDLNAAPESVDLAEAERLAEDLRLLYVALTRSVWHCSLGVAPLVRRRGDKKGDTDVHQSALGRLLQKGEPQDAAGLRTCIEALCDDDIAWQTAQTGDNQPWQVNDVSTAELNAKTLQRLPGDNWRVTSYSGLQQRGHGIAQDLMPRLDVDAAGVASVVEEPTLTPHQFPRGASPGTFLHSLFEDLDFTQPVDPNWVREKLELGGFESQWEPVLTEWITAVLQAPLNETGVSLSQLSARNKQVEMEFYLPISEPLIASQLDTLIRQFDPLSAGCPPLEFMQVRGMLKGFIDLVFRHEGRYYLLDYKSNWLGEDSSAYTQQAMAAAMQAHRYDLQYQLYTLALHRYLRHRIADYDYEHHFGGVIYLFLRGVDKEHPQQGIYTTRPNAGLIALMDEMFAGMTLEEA

[11] = Counterscreen for AddAB inhibitors: absorbance-based bacterial cell-based high throughput dose response assay for inhibitors of bacterial viability. [Related pubchem assays (depositor defined):AID435030, AID449728, AID449731, AID488942, AID488955, AID488956]; assay type: functional
[12] = Shn3 3'UTR reporter inhibitors, dose response, cell-based, Clone20 osteoblasts, firefly luciferase, cherry-picked (AID 624132); assay type: functional;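 also: firefly luciferase luminescence from reporter carrying the Shn3 3'UTR in osteoblasts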
[13] = HepG2 cell cytotoxicity, dose response, cytotoxicity control for Shn3 inhibitor project, CellTiter-Glo, cherry-picked (AID 624134); assay type: functional, cell-based

Sequence of Photoreceptor-specific nuclear receptor (Q9Y5X4 whole entry, the tested form may be a part): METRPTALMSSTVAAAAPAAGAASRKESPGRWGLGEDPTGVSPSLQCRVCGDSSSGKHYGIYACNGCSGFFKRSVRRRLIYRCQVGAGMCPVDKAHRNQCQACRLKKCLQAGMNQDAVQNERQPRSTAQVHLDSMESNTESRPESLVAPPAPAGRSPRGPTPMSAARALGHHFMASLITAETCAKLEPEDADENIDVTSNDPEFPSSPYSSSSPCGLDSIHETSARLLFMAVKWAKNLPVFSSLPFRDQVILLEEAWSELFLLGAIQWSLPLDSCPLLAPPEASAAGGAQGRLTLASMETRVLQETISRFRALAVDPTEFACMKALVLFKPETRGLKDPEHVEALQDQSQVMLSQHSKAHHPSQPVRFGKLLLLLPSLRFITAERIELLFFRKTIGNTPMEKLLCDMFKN

With NC(=O)c1nn(-c2ccccc2)nc1NC(=O)CSc1nnnn1-c1ccc(Cl)cc1 the IC50 [1] was 2.27 µM (active).
For Cc1ccc(NCc2nnc(SCC(=O)c3ccccc3)n2Cc2ccco2)c(C)c1, the IC50 [2] was 12.1 µM (active) and the IC50 [3] was 23 µM (active).
In the case of COc1cccc(/C=C2\SC(=S)N(CCCC(=O)N(CCO)c3ccccc3)C2=O)c1, the EC50 (BJ [4]) is reported as 3.1 µM (inconclusive), the EC50 (BJ [5]) is reported as > 150 µM (not active) and the EC50 (BJ [6]) is reported as > 75 µM (inconclusive). The EC50 [7] was 6.07 µM (inconclusive), the AC50 [8] was 41.7 µM (active) and the EC50 (BJ [9]) was > 66.7 µM (inactive). For the same molecule, the EC50 (Protein RecA) was 7.22 µM (active).
With CCOC(=O)C1(CCOc2ccccc2)CCN(Cc2cc(OC)c(O)cc2Cl)CC1 the AC50 [10] was 6.03 µM (active).
In the case of c1ccc(-c2cc(CSc3nc4ccccc4[nH]3)on2)cc1, the IC50 (Exodeoxyribonuclease V) is reported as > 119 µM (inactive), the IC50 [11] is reported as > 119 µM (inactive) and the AC50 [12] is reported as 3.76 µM (active). The AC50 [13] was 58.3 µM (active) and the IC50 [1] was 4.61 µM (active).
In the case of COc1ccc2c(CC(=O)OCC(=O)N(C)c3c(N)n(Cc4ccccc4)c(=O)[nH]c3=O)coc2c1, the AC50 [12] is reported as 21.2 µM (active) and the AC50 [10] is reported as 5.45 µM (active).
For Cc1cc(O)cc2c1C1CCC3(C)C(=O)CCC3C1C=C2 (stereo not given), the AC50 [10] was 19.5 µM (active).
For Cc1c(O)ccc2c(CN3CCN(C/C=C/c4ccccc4)CC3)cc(=O)oc12, the AC50 [10] was 19.5 µM (active).
